Laboratory results published in patent US5470854A, “2-phenylbenzo[B]furans, process for their manufacture and pharmaceutical preparations containing them” (Schering Aktiengesellschaft, priority 1991, dated 1995).

Legend:
uterus of infantile mice [1] = assay: Anti-uterotrophic test (in-vivo test on infantile mice); settings: simultaneous 0.4 μg oestron/animal/day; for anti-uterotrophic test, effect: uterus dry weight (mg)/body weight (g) × 100
Description: (§1) The effectiveness of these compounds was found in an in-vivo test on infantile mice. This test is extensively described in Cancer Treatment Reviews 1984, 11, 147, and J. Med. Chem., 1984, 27, 1439.
(§2) ^a dosage/animal, administered s.c. on three consecutive days in oliv
(§3) ^b uterus dry weight (mg)/body weight (g) × 100, determined 24
(§4) hours after the final injection.
^c simultaneous administration of 0.4 μg oestron/animal/day.

uterus of infantile mice [2] = assay: Uterotrophic test (in-vivo test on infantile mice); settings: uterus dry weight (mg)/body weight (g) × 100
Description: as §1, §2, §3, §4

[3] = system: human MCF-7 mamma carcinoma cells; assay: Effect on cell growth of MCF-7 cells; format: cell-based; settings: for activity at 10 µM / activity at 1 µM / activity at 0.1 µM / activity at 5 µM: Homo sapiens, MCF7, mean of 16 individual results, read-out: T/C (corrected); for activity at 10 µM: 1 × 10^-5 M; for activity at 1 µM: 1 × 10^-6 M; for activity at 0.1 µM: 1 × 10^-7 M; for activity at 5 µM: 5 × 10^-6 M
Description: Data given as corrected T/C values (%).
^a Inhibiting effect on MCF7 cells: quotient of optical densities fro
standard deviation through error reckoning according to GAUSS.
^b Substance concentration (mol/1) in incubation medium.
^c Significant p < 0.01 in relation to control group (C).

oestrogen receptor = target: T1, oestrogen receptor (Bos taurus, UniProt P49884); assay: Relative bonding affinity to the oestrogen receptor (competition with 3H-17β-Estradiol); format: binding, calf; settings: for RBA* (relative bonding affinity to the oestrogen receptor): calves' uteri, in relation to 17β-estradiol = 100
T1 construct: oestrogen receptor of a calf's uterus; from tissue; host or cells: calf uterus
T1 sequence (P49884 1-596): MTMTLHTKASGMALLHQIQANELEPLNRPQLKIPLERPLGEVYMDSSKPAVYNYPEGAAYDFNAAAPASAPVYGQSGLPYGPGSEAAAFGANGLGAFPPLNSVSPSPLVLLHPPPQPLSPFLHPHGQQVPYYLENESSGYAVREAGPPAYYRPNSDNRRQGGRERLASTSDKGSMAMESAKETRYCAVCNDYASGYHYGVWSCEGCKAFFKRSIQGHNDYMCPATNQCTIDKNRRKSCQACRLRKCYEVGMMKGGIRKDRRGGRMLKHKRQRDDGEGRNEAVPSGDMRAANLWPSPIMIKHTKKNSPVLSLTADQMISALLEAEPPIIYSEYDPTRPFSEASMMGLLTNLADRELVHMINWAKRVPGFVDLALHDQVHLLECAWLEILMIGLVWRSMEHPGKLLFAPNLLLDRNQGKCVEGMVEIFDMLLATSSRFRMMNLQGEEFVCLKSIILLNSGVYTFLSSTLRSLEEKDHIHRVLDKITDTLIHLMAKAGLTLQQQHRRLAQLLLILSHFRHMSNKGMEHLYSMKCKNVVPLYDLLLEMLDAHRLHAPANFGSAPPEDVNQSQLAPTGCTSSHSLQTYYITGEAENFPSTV
From the text: The test methodology is described in Cancer Treatment Reviews 1984, 11, 147.
*Relative bonding affinities to the oestrogen receptor of calves' uteri,
in relation to 17β-estradiol = 100

[4] = 1 μg/animal s.c. on three consecutive days
[5] = 5 μg/animal s.c. on three consecutive days
[6] = 25 μg/animal s.c. on three consecutive days
[7] = 125 μg/animal s.c. on three consecutive days

Compound | anti-uterotrophic test, inhibition (uterus of infantile mice [1]; 5 μg/animal s.c.) | anti-uterotrophic test, inhibition (uterus of infantile mice [1]; 125 μg/animal s.c.) | anti-uterotrophic test, effect (uterus of infantile mice [1]; 5 μg/animal s.c.) | anti-uterotrophic test, effect (uterus of infantile mice [1]; 25 μg/animal s.c.) | anti-uterotrophic test, effect (uterus of infantile mice [1]; 125 μg/animal s.c.) | uterotrophic test, effect (uterus of infantile mice [2]; [4]) | uterotrophic test, effect (uterus of infantile mice [2]; [5]) | uterotrophic test, effect (uterus of infantile mice [2]; [6]) | uterotrophic test, effect (uterus of infantile mice [2]; [7]) | effect on the growth of MCF-7 / hormone-dependent tumour cells, in words [3] | activity at 10 µM [3] | activity at 1 µM [3] | activity at 0.1 µM [3] | activity at 5 µM [3] | affinity to the oestrogen (estradiol) receptor, in words (oestrogen receptor) | RBA* (relative bonding affinity to the oestrogen receptor) (oestrogen receptor) | anti-uterotrophic test, inhibition (uterus of infantile mice [1]; 25 μg/animal s.c.) | further results
CCc1c(-c2ccc(O)cc2)sc2ccc(O)cc12 [Compound 104a, 3-ethyl-5-hydroxy-2-(4-hydroxyphenyl)benzo[b]thiophen] | 27% | 30% | 37.0 ± 3.4 mg/g × 100 | 44.1 ± 6.7 mg/g × 100 | 36.3 ± 4.0 mg/g × 100 | 30.3 ± 7.7 mg/g × 100 | 38.5 ± 5.4 mg/g × 100 | 44.2 ± 6.6 mg/g × 100 | 19.6 ± 5.2 mg/g × 100 | strongly inhibiting effect | 3.2 ± 3.2% | 59.1 ± 15.9% | 61.2 ± 22.1% | 2.4 ± 3.9% | greatest affinity in relation to estradiol | 59,6 |  | anti-uterotrophic test, inhibition (uterus of infantile mice [1]; 1 μg/animal s.c.): 32%; anti-uterotrophic test, effect (uterus of infantile mice [1]; 0.2 μg/animal s.c.): 49.8 ± 1.4 mg/g × 100; anti-uterotrophic test, effect (uterus of infantile mice [1]; 1 μg/animal s.c.): 35.3 ± 7.3 mg/g × 100; uterotrophic test, effect (uterus of infantile mice [2]; 0.2 μg/animal s.c. on three consecutive days, 24 hours after final injection): 27.6 ± 3.8 mg/g × 100
CCc1c(-c2ccc(O)cc2)sc2cc(O)ccc12 [Compound 104b, 3-ethyl-6-hydroxy-2-(4-hydroxyphenyl)benzo[b]thiophen] | 32% | 31% | 37.9 ± 6.9 mg/g × 100 | 37.3 ± 4.2 mg/g × 100 | 38.0 ± 5.4 mg/g × 100 | 18.0 ± 4.0 mg/g × 100 | 22.7 ± 5.9 mg/g × 100 | 29.3 ± 4.5 mg/g × 100 | 39.9 ± 6.1 mg/g × 100 | strongly inhibiting effect | 4.2 ± 6% | 91.9 ± 21.2% | 94 ± 21.2% | 5.7 ± 5.8% | greatest affinity in relation to estradiol | 27,6 | 33% | 
CCCc1c(-c2ccc(O)cc2)sc2ccc(O)cc12 [Compound 106a, 5-hydroxy-2-(4-hydroxyphenyl)-3-propylbenzo[b]thiophen] | 27% |  | 34.4 ± 7.1 mg/g × 100 | 48.0 ± 4.2 mg/g × 100 | 48.8 ± 4.1 mg/g × 100 | 25.4 ± 6.2 mg/g × 100 | 32.7 ± 5.0 mg/g × 100 | 35.3 ± 7.5 mg/g × 100 | 51.2 ± 9.9 mg/g × 100 | strongly inhibiting effect | 0.3 ± 3.5% | 35 ± 10.4% | 77.1 ± 21.4% | 2.3 ± 4.1% | greatest affinity in relation to estradiol | 21,9 |  | 
CCCc1c(-c2ccc(O)cc2)sc2cc(O)ccc12 [Compound 106b, 6-hydroxy-2-(4-hydroxyphenyl)-3-propylbenzo[b]thiophen] | 34% | 40% | 37.0 ± 6.5 mg/g × 100 | 35.3 ± 6.7 mg/g × 100 | 34.8 ± 6.2 mg/g × 100 | 16.6 ± 4.6 mg/g × 100 | 22.4 ± 3.1 mg/g × 100 | 24.5 ± 4.8 mg/g × 100 | 35.1 ± 4.9 mg/g × 100 | strongly inhibiting effect | 1.8 ± 3.1% | 69 ± 15.1% | 81.7 ± 17.5% | 3.6 ± 3% | greatest affinity in relation to estradiol | 25,1 | 39% | 
Oc1ccc(-c2sc3cc(O)ccc3c2CCCCCCN2CCCCC2)cc1 [Compound 119b, 6-hydroxy-2-(4-hydroxyphenyl)-3-(6-N-piperidinylhexyl)benzo[b]thiophen] | 73% | 61% | 26.1 ± 5.4 mg/g × 100 | 22.8 ± 2.6 mg/g × 100 | 30.0 ± 5.6 mg/g × 100 | 19.8 ± 3.1 mg/g × 100 | 20.7 ± 5.0 mg/g × 100 | 19.4 ± 2.1 mg/g × 100 | 34.2 ± 9.5 mg/g × 100 | strongly inhibiting effect | -13.5 ± 3.2% | 48.1 ± 12.4% | 18.8 ± 7.2% | 2 ± 3.6% |  | 7,1 | 65% | 
